Measured values reported in US20220323433A2, “CLINICAL REGIMEN FOR TREATING MYELODYSPLASTIC SYNDROME WITH PHOSPHATASE INHIBITOR” (H. Lee Moffitt Cancer Center and Research Institute, Inc., priority 2016, published 2022).
Where two headings read alike, the source gives them in different places.

How the values were obtained:
male Fischer rats = test: Non-GLP dose ranging toxicology study in rats, daily IV infusion for 4 days; conditions: for MTD: male Fischer rats, IV daily for 4 days
Protocol: In a non-GLP dose ranging study in male Fischer rats, LB-100 was administered by daily intravenous (IV) infusion at 0.5, 0.75 and 1.5 mg/kg/day for 4 consecutive days.

beagle dogs = test: Non-GLP dose ranging study in dogs, IV every 4 days x 4 doses; assay type: in vivo, dog
From the text: Single cell necrosis was observed throughout the gastrointestinal tract.

[1] = test system: male and female beagle dogs
Protocol: In the GLP repeat dose dog study, LB-100 was administered by intravenous injection (slow bolus push) at dose levels of 0.15, 0.30, and 0.75 mg/kg daily for 5 consecutive days. […] The dosage level was reduced to 0.50 mg/kg/day for the 4th and 5th doses (study Days 3 and 4).
Multilead (I, II, III, aVR, aVL, aVF, and V2) ECGs were recorded for all animals prior to randomization (Day−8) and for all surviving animals on Day 4 (recorded approximately 2 to 4 hours following dose administration) and Day 27.
Blood pressure (systolic, diastolic, and mean arterial pressure) data were recorded for all animals once during the pretest period (Day−8) and for all surviving animals on study Day 4 (recorded approximately 2 to 4 hours following dose administration) and Day 27.

[2] = Solubility and stability of LB-100 solution; assay type: physicochemical; conditions: for stability: formulated in monosodium glutamate
From the text: LB-100 is a water soluble enantiomeric zwitterion provided as a sterile solution for intravenous administration.
Phosphate buffered saline (PBS) was used as the vehicle for LB-100 administration in preclinical efficacy studies and sodium bicarbonate 4.2% for injection was used as the vehicle for GLP toxicity studies.

solid tumors = conditions: human, in vivo
[3] = test system: male and female Sprague Dawley rats; test: GLP repeat-dose study in rats, daily IV slow bolus for 5 days; conditions: for C0 / AUClast: 0.75 mg/kg/day
del(5q) MDS = conditions: cited from earlier work; for median overall survival: long term follow up
del(5q) clones = conditions: del(5q) patients; cited from earlier work
[4] = MDS-003 multicenter Phase 2 trial

## CN1CCN(C(=O)C2C(C(=O)O)[C@H]3CC[C@@H]2O3)CC1 (mixture of isomers) [LB-100, 3-{4methylpiperazine-carbonyl}-7-oxalobicyclo[2.2.1]heptane-2-carboxylic acid]
Male Fischer rats; 0.75 mg/kg/day
  nephrosis severity: mild
Male Fischer rats; 0.5, 0.75 and 1.5 mg/kg/day IV for 4 days
  no-observed-adverse-effect-level (NOAEL): not established
Male Fischer rats; 0.75 and 1.5 mg/kg/day groups
  heart toxicity: epicardial hyperplasia with inflammation primarily on the epicardium of the atria
Male Fischer rats; any of the treatment groups (0.5, 0.75, 1.5 mg/kg/day)
  unscheduled deaths: no unscheduled deaths
Male Fischer rats
  MTD: 0.75 mg/kg/day
Male Fischer rats; surface area equivalent
  MTD: about 4.5 mg/m^2
Male Fischer rats; rat, in vivo, iv
  dose-limiting toxicities: Kidney, heart, femoral bone, liver and urinary bladder toxicity
Beagle dogs; 0.1, 0.25, 0.5, 1.0 mg/kg
  survival: no LB-100-related effects on survival
Beagle dogs; beagle dogs, IV every 4 days x 4 doses
  no observed-effect level (NOEL): 0.25 mg/kg
Beagle dogs; dog, in vivo, 1 mg/kg
  signs of toxicity: almost no signs of toxicity
[1]; 0.15 mg/kg/day
  tolerability: well tolerated
[1]; 0.75 mg/kg/day group, prior to fourth dose
  test article-related lethality: 2 of 10
[1]; beagle dogs, IV daily for 5 consecutive days
  Highest Non-Severely Toxic Dose (HNSTD): 0.15 mg/kg
[1]; dog, in vivo
  ECGs: within normal limits
  blood pressure: unaffected
  hematology or coagulation parameters: no residual effects
  urinalysis parameters: no test article-related changes
[2]
  water solubility: water soluble
[2]; pH 10.5, at refrigerated temperatures
  stability: at least 8 hours
[2]; pH 10.5, at −20° C.
  stability: stable for months
[2]; in solution
  racemization of separated enantiomers: racemize rapidly in solution
Solid tumors
  cardiac or myelosuppressive toxicities: no cardiac or myelosuppressive toxicities observed
  dose limiting toxicities: no dose limiting toxicities
  plasma concentrations of LB-100: greater than 1 μM
  tolerability: well tolerated
[3]; females, study Day 4
  C0: 2347 ng/mL
[3]; males, study Day 4
  AUClast: 596 ng·h/mL
  C0: 1804 ng/mL
[3]; 0.5, 0.75, 1.25 mg/kg/day males and 1.25 mg/kg/day females
  heart findings (epicardium and subepicardium of the atrium): Minimal to mild subacute inflammation
[3]; 0.75 and 1.25 mg/kg/day group males and females
  kidney findings: adverse, test article-related nephrosis of the kidneys
[3]; Sprague Dawley rats, IV slow bolus daily for 5 days
  severely toxic dose in 10% of the animals (STD 10): 0.75 mg/kg/day
[3]; all treatment groups
  reversibility of effects on urinalysis parameters: reversible
[3]; female, Sprague Dawley, rat, in vivo, iv
  AUClast: 691 ng·h/mL

## Nc1cccc2c1CN(C1CCC(=O)NC1=O)C2=O (stereo not shown) [lenalidomide]
del(5q) MDS; MDS-003, cytogenetic response
  patients achieving a complete response (CR): 45%
del(5q) MDS; MDS-003
  patients with at least a partial cytogenetic response: 73%
del(5q) MDS; [4]
  median TI duration: 2.2 years
  patients achieved transfusion independence (TI): 67%
del(5q) MDS; after 2-3 years of treatment
  patients who develop resistance: approximately 50%
del(5q) MDS; cytogenetic non-responders
  median overall survival: 3.1 years
del(5q) MDS; cytogenetic responders
  median overall survival: 4.9 years
del(5q) MDS; non-responders (TI)
  median overall survival: 2 years
del(5q) MDS; patients who reached TI
  median overall survival: 4.3 years
del(5q) MDS; patients with PP2Acα suppression from baseline, not reached
  median duration of TI: ≥ 1507 days
del(5q) MDS; patients with del5q MDS
  median duration of responses: 2.5 years
del(5q) MDS; patients without PP2Acα suppression (P=0.006, log rank)
  median duration of TI: 679 days
del(5q) clones
  apoptosis and cell cycle arrest: induces apoptosis and cell cycle arrest
